Assay results published in PMC10216263, “Favorable Preclinical Pharmacological Profile of a Novel Antimalarial Pyrrolizidinylmethyl Derivative of 4-amino-7-chloroquinoline with Potent In Vitro and In Vivo Activities” (Biomolecules, 2023).
Read-outs that look alike come from different tables or passages of the source.

Tests used:
[1] = system: all the Pf strains tested; assay: In vitro antimalarial activity, summary over all Pf strains tested; type: cell-based, P. falciparum; settings: for IC50: Plasmodium falciparum
Experimental: The strains D10 and 3D7 (CQ-Sensitive), and V1-S (CQ, pyrimethamine and cycloguanil resistant), K1 (CQ and PYR resistant), W2 and FCR3 (CQ-Resistant), TM90C2A (CQ, MQ, PYR and ATQ resistant) and IPC 5202 (MR4-1240, artemisinin-resistant, K13 mutation, and R539T) of Pf were cultured in vitro as described by Trager and Jensen with minor modifications. Briefly, parasites were maintained at 5% hematocrit (human type A-positive red blood cells) in RPMI 1640 (EuroClone, S.p.A. Milan, Italy) medium with the addition of 10% heat inactivate human serum or 1% AlbuMax (In vitrogen, Milan, Italy), 20 mM Hepes and 2 mM glutamine (Euroclone), at 37 °C in a standard gas mixture consisting of 1–3% O2, 5% CO2, and 92–94% N2.
Compounds were dissolved in either water or DMSO and then diluted with medium to achieve the required concentrations (final non-toxic DMSO concentration <1%). Asynchronous cultures of Pf with parasitaemia of 1–1.5% and 1% final hematocrit were aliquoted into 96-well flat-bottom microplates (Corning, Glendale, AZ, USA) with serial dilutions of test compounds and incubated for 72 h at 37 °C. Parasite growth was determined spectrophotometrically (OD650) by measuring the activity of the parasite lactate dehydrogenase (pLDH) according to a modified version of the method of Makler in control and drug-treated cultures.

P. falciparum W2 (CQ-R) = system: P. falciparum W2 (CQ-R); set-up: method as in PMID 18538567; settings: 72 h incubation, pLDH method, mean of 3 experiments; cited from earlier work
rat hepatocytes = assay: Metabolic profiling in hepatocytes; type: in vitro ADME; settings: rat hepatocytes, MG3 10 µM, 1 h incubation, semi-quantitative
Experimental: (§1) For metabolite profiling, MG3.2HCl (10 µM) was incubated with mouse, rat, dog, monkey, and human hepatocytes (300,000 cells/mL for the mouse and 1 × 10^6 cells/mL for the other species) in Leibovitz L-15 medium, at 37 °C. Incubations were performed in a 12-well plate under shaking. Aliquots of the incubation samples, together with a control in medium alone, were taken at t = 0 and 60 min; the metabolism was stopped by the addition of an equal volume of chilled ACN and the samples were centrifuged at 1100 rpm for 20 min. The supernatant was stored at −20 °C until analysis. The analyses were performed using an HPLC system (Agilent) online with a photodiode array (PDA) detector (Agilent) coupled to a Mass Spectrometer Q-TOF 2 (Waters), ESI positive, following the method reported in Table 1.
(§2) The software utilized for searching the accurate masses of possible metabolites was Metabolynx, version 4.1 (Waters Corporation, Milford, MA, USA), with a mass window of 40 mDa. Samples were then re-run in MS/MS mode by selecting the masses of possible metabolites found. The collision energy used to obtain MS/MS data was 25 eV. The proposed identity of metabolites was based on their accurate mass (using LockSpray correction), with an accuracy of +/−5 mDa. MS/MS analyses were performed to verify that peaks were drug-related and to obtain structural information from the fragment ions formed. The structures of some metabolites are proposed. The approximate relative amounts of parent and metabolites were determined from the absolute areas taken from a selected ion chromatogram at the metabolite masses with a mass window of 0.04 Da.

human hepatocytes = assay: Metabolic profiling in hepatocytes; type: in vitro ADME; settings: human hepatocytes, MG3 10 µM, 1 h incubation, semi-quantitative
Experimental: as §1, §2

[2] = system: Pf-3D7 gametocytes >95% Stage I-III; assay: Gametocyte luciferase assay (3D7elo1-pfs16-CBG99); type: cell-based, P. falciparum
Experimental: (§3) In vitro activity of MG3 against P falciparum sexual gametocyte stages […]
(§4) luminescent transgenic 3D7 strain (3D7elo1-pfs16-CBG99) at two different stages (I-III and V) using the […]
(§5) Briefly, 100 µL of culture medium were removed from each well to increase hematocrit; 70 µL of resuspended culture were transferred to a black 96-well plate; 70 µL of D-luciferin (1 mM in citrate buffer 0.1 M, pH 5.5) were added. Luminescence measurements were performed after 10 min with 500 ms integration time using a Synergy4-BioTek reader.
(§6) (1 picture or pasted object on this page, not shown here)

[3] = system: Pf-3D7 gametocytes >95% Stage V; assay: Gametocyte luciferase assay (3D7elo1-pfs16-CBG99); type: cell-based, P. falciparum; settings: Plasmodium falciparum, 3D7, read-out: Pf-3D7 gametocytes IC50 (nM), >95% Stage V
Experimental: as §3, §4, §5, §6

CYP2C19 = CYP2C19 (Homo sapiens, UniProt P33261); assay: in vitro
Sequence of CYP2C19 (P33261 whole entry): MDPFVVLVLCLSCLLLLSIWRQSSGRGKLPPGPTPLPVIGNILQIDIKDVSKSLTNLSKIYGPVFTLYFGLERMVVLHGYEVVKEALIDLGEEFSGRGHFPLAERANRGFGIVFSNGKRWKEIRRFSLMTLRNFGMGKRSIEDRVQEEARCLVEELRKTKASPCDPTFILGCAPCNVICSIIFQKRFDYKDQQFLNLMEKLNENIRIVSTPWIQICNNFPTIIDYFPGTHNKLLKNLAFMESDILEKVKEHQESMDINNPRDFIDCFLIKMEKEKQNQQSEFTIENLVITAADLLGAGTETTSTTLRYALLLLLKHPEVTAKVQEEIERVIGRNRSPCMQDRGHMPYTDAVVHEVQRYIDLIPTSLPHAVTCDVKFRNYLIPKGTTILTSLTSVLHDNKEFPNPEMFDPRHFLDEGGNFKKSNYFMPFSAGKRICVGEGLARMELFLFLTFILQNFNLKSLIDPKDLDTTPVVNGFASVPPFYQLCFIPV

P. falciparum K1 (CQ-R) = assay: In vitro antimalarial activity, [3H]-hypoxanthine incorporation (LSHTM); type: cell-based; settings: Plasmodium falciparum, K1; 72 h, [3H]-hypoxanthine incorporation, mean of 3 experiments; read-out: P. falciparum IC50 nM, K1 (CQ-R)
[4] = system: Salmonella typhimurium TA100; assay: Bacterial Reverse Mutation Assay; settings: TA 100, with metabolic activation
Experimental: (§7) using the preincubation method (30 min, 37°C) with and without phenobarbital-5,6-benzoflavone induced
(§8) MG3 was dissolved in distilled water (H2O) at
(§9) the maximum concentration of 40 mg/mL and tested in a preliminary range-finding test in all strains of
(§10) metabolic activation to determine the toxicity of the compound.

[5] = system: Salmonella typhimurium TA98, TA100 and Escherichia coli WP2 uvrA; assay: Bacterial Reverse Mutation Assay, overall; settings: with or without rat liver S9, up to 1000 per plate
Experimental: as §7, §8, §9, §10

Compound: Clc1ccc2c(NCC34CCCN3CCC4)ccnc2c1 [MG3, 7-Chloro-N-((hexahydro-1H-pyrrolizin-7a-yl)methyl)quinolin-4-amine]
- activity fold lower than that of ASN or DHA ([1]; P. falciparum strains): 5–6 fold
- IC50 ([1]; read-out: mean IC50 against all the Pf strains tested): 20.9 nM
- IC50 ([1]; range over strains, read-out: IC50 range against all the Pf strains tested): 12 to 30 nM
- IC50 (P. falciparum W2 (CQ-R)): 28.9 nM
- % of Total Drug Related Material (rat hepatocytes): 53%
- % of Total Drug Related Material (human hepatocytes): 82%
- IC50 ([2]; Plasmodium falciparum, 3D7, read-out: Pf-3D7 gametocytes IC50 (nM), >95% Stage I-III, luciferase readout, 3D7elo1-pfs16-CBG99): 102 ± 22.1 nM
- IC50 ([2]; read-out: Pf-3D7 gametocytes IC50 (nM), >95% Stage I-III, luciferase readout, 3D7elo1-pfs16-CBG99): ~100 nM
- IC50 [3]: 10700 ± 2790 nM
- inhibition at 3 µM (CYP2C19): < 3%
- IC50 (P. falciparum K1 (CQ-R)): 21.2 nM
- fold increase value (ratio treated/solvent revertant numbers) ([4]; I° Exp., 62.5 µg/plate): 0.6
- fold increase value (ratio treated/solvent revertant numbers) ([4]; I° Exp., 125 µg/plate): 0.6
- fold increase value (ratio treated/solvent revertant numbers) ([4]; I° Exp., 250 µg/plate): 0.8
- fold increase value (ratio treated/solvent revertant numbers) ([4]; I° Exp., 500 µg/plate): 0.8
- fold increase value (ratio treated/solvent revertant numbers) ([4]; I° Exp., 1000 µg/plate): 0.8
- fold increase value (ratio treated/solvent revertant numbers) ([4]; Range finding, 1.95 µg/plate): 1.1
- fold increase value (ratio treated/solvent revertant numbers) ([4]; Range finding, 3.9 µg/plate): 1.1
- fold increase value (ratio treated/solvent revertant numbers) ([4]; Range finding, 7.81 µg/plate): 1.2
- fold increase value (ratio treated/solvent revertant numbers) ([4]; Range finding, 15.63 µg/plate): 0.9
- fold increase value (ratio treated/solvent revertant numbers) ([4]; Range finding, 31.25 µg/plate): 1.0
- fold increase value (ratio treated/solvent revertant numbers) ([4]; Range finding, 62.5 µg/plate): 1.0
- fold increase value (ratio treated/solvent revertant numbers) ([4]; Range finding, 125 µg/plate): 1.0
- fold increase value (ratio treated/solvent revertant numbers) ([4]; Range finding, 250 µg/plate): 1.0
- fold increase value (ratio treated/solvent revertant numbers) ([4]; Range finding, 500 µg/plate): 1.2
- fold increase value (ratio treated/solvent revertant numbers) ([4]; Range finding, 1000 µg/plate): 0.7
- mutagenicity judgement [5]: non-mutagenic
